Values quoted from earlier work, collected in patent US20140037700A1, “Composition and Method for Enhancing an Immune Response” (priority 2011, published 2014).

What was measured:
[1] = tested on: anti-microbial peptide cathelicidin; settings: exposure of macrophages
[2] = in the presence of a normal or high calcium diet; DeLuca et al.
[3] = tested on: tuberculosis growth in human monocytes; design: dose or concentration left out as unconfirmed; settings: alone, in vitro; Denis et al.
[4] = tested on: M. tb cells in NRP2 state; settings: oxygen 0.06% of normal saturation (anaerobic)
[5] = combined with liposomes
TACO gene transcription = settings: human macrophages
[6] = tested on: M. tuberculosis survival within macrophages

C=C1/C(=C\C=C2/CCC[C@]3(C)[C@@H]([C@H](C)CCCC(C)(C)O)CC[C@@H]23)C[C@@H](O)C[C@@H]1O [Calcitriol, 1,25-dihydroxyvitamin D]
expression of anti-microbial peptide cathelicidin [1]: induces expression
prevention or suppression of autoimmune disease in models [2]: prevent or markedly suppress
ability of human monocytes to restrict tuberculosis growth [3]: significant ability to restrict tuberculosis growth
bacillary replication in macrophages (M.tb within macrophages; even at extremely low concentrations, Crowle et al.): slow and stop bacillary replication
colony forming units (M.tb within macrophages; primary human macrophages infected with virulent M. tb): reduced colony forming units

NNC(=O)c1ccncc1 [isoniazid]
susceptibility of NRP2 cells to antibiotic [4]: resistant

Cc1ncc([N+](=O)[O-])n1CCO [metronidazole]
susceptibility of NRP2 cells to antibiotic [4]: sensitive

Monophosphoryl lipid A
mucosal immunoprotective responses [5]: induce mucosal immunoprotective responses

epigallocatechin-3-gallate [EGCG]
TACO gene transcription (TACO gene transcription): down-regulates TACO gene transcription in a dose-dependent manner
mycobacterium survival within macrophages ([6]; in vitro, flow cytometry and colony counts): substantially reduced mycobacterium survival
M. tuberculosis survival within macrophages ([6]; used prior to M. tb exposure in vitro): completely inhibits
